These results are taken from paper PMC11510023, “A Novel Cold-Adapted Nitronate Monooxygenase from Psychrobacter sp. ANT206: Identification, Characterization and Degradation of 2-Nitropropane at Low Temperature” (Microorganisms, 2024).

For orientation: Km means the concentration of substrate that gives half-maximal velocity.

The test system of the experiment is T1, rPsNMO.
T1 construct: gene psnmo; N-terminal His-tag, pET28a(+), E. coli BL21(DE3)
Put plainly: nitrite release, colorimetric at […] nm; Lineweaver-Burk. Type of experiment: biochemical, Psychrobacter sp. ANT206. Conditions: 30 °C, pH 7.5 potassium phosphate, 6-12 mM 2-NP; substrate pre-equilibrated 24 h with equal KOH to give the anionic form (propane-2-nitronate).

Turning to 2-NP, the Km stood at 10.3 mM.
